According to article PMC6615261, “Repurposing Azithromycin and Rifampicin Against Gram-Negative Pathogens by Combination With Peptidomimetics” (Frontiers in Cellular and Infection Microbiology, 2019):
Read-outs that look alike come from different tables or passages of the source.

What was measured:
[1] = tested on: E. coli ST131; test: Potentiation of additional antibiotics (COMPAN1F plates), MIC; type: cell-based, Escherichia coli
Procedure: (§1) Minimal inhibitory concentrations (MICs) of peptidomimetics, antibiotics and their combinations were determined by broth microdilution according to the Clinical Laboratory Standards Institute performance standards (Clinical and Laboratory Standards Institute, [2013]). […] Since rifampicin and azithromycin mainly are used to treat infections with Gram-positive pathogens only CLSI clinical breakpoints were available for such bacteria. […] Potentiation of additional antibiotics by peptidomimetics was determined by using commercial 96-well plates containing varied concentrations of standard antibiotics (COMPAN1F; Trek Diagnostic Systems Inc.). The peptidomimetics were added immediately prior to inoculation with pathogen, and then MICs were determined as above. The MICs of peptidomimetic/antibiotic combinations were determined according to the method above, and the concentration ratios were selected based upon checkerboard results with 2:1 and 1:4 ratio of peptidomimetic with rifampicin or azithromycin, respectively. Minimal bactericidal concentrations (MBCs) were determined by using growth-curve assay plates. MIC plates were prepared as above, and then the plates were incubated at 37°C with continuous shaking. Growth was recorded at 10 min intervals as optical density (OD) at 600 nm during 24 h. At 24 h, for wells without growth, a sample was diluted 10-fold in sterile saline (0.9% sodium chloride) and plated onto MHA, following CLSI guidelines (Clinical and Laboratory Standards Institute, [1999]).

[2] = tested on: K. pneumoniae ST258
Procedure: (§2) The potential synergistic effects in peptidomimetic-antibiotic combinations were assessed by using a two-dimensional checkerboard assay (Garcia, [2010]). Briefly, twofold dilutions of peptide and antibiotic were prepared in MBH II media along the X- and Y-axis, respectively, in 96-well plates. The inoculum was added to the plates, and subsequently these were incubated for 18–20 h. All steps for inoculum preparation and broth microdilution were in accordance with the CLSI guidelines (Clinical and Laboratory Standards Institute, [2013]). The fractional inhibitory concentration index (FICI) was calculated as [MICA(A+B)/MICA(alone)] + [MICB(A+B)/MICB(alone)], where MICA(A+B) represents the MIC of antibiotic (A) in combination with peptidomimetic (B), while MICB(A+B) represents the MIC of peptidomimetic (B) in combination with antibiotic (A). MICA(alone) and MICB(alone) represent the MIC of each compound individually. FICI values of ≤0.5 were interpreted as synergy.

[3] = tested on: K. pneumoniae ST258; test: Potentiation of additional antibiotics (COMPAN1F plates), MIC; type: cell-based, Klebsiella pneumoniae
Procedure: as §1

[4] = tested on: E. coli ST131
Procedure: as §2

[5] = tested on: P. aeruginosa ATCC 27853
Procedure: as §2

[6] = tested on: K. pneumoniae ST258; test: MIC by broth microdilution; type: cell-based, Klebsiella pneumoniae
Procedure: as §1

[7] = tested on: P. aeruginosa ATCC 27853; test: MIC by broth microdilution; type: cell-based, Pseudomonas aeruginosa; conditions: peptidomimetic alone
Procedure: as §1

[8] = tested on: K. pneumoniae ST258; test: Screening of peptidomimetic-antibiotic combinations (growth / growth inhibition); type: cell-based, Klebsiella pneumoniae; set-up: key to Growth in combination with RIF / Growth in combination with AZM: Growth (+); growth inhibition (–)
Procedure: as §1

[9] = MTS/PMS cell viability assay; type: cell-based; conditions: human, HepG2 hepatocytes, 1 h exposure, read-out: Cytotoxicity HepG2 EC50 ± SD
Procedure: (§3) NIH 3T3 and HepG2 cells (both from ATCC, Manassas, VA, USA) were cultured in flat-bottomed 96-well MicroWell™ plates (NUNC, Roskilde, Denmark) at seeding densities of ~23,000 and ~22,000 cells/well, respectively, and then cultured for 22–24 h under standard culturing conditions (37°C, 5% CO2, humidified air) to reach 80–90% confluence. NIH 3T3 were cultured in Dulbecco's modified Eagle's medium (DMEM) supplemented with 10% (v/v) newborn-calf serum (NCS) (Gibco, Paisly, UK), while HepG2 were cultured in Eagle's minimum essential medium (EMEM) supplemented with 10% (v/v) fetal bovine serum (FBS, Gibco, Paisly, UK), sodium pyruvate (1 mM), and non-essential amino acids (1%, v/v). Both culturing media were further supplemented with penicillin (100 U/mL), streptomycin (100 μg/mL), and L-glutamine (2 mM).
(§4) Effect on cell viability was determined in NIH 3T3 fibroblasts and HepG2 hepatocytes by using the MTS/PMS assay measuring metabolic activity. Briefly, the adhered cells were washed with 37°C Hanks' balanced salt solution (HBSS from Sigma-Aldrich, St. Louis, MO, USA), containing 10 mM HEPES (AppliChem, Darmstadt, Germany), and adjusted to pH 7.4, and were then exposed for 1 h to 100 μL of test compound(s) dissolved in the appropriate culturing medium without serum for each cell line. After exposure the cells were washed with HBSS containing 10 mM HEPES (pH 7.4) and 100 μL of an MTS/PMS solution, consisting of 240 μg/mL MTS (Promega, Madison, WI, USA) and 2.4 μg/mL PMS (SigmaAldrich, Buchs, Switzerland) in HBSS, was added to the cells, which then were incubated for 1 h at 37°C with horizontal shaking under light protection. Absorbance was measured at 492 nm by using a POLARstar OPTIMA plate reader (BMG Labtech, Offenburg, Germany). The relative viability was calculated according to Equation (1) with absorbance values obtained after incubation of cells with test compound; incubation with SDS (0.2%, w/v in medium) defined 100% cell death (Abspos), while the absorbance of cells incubated with medium defined 0% cell death (Absneg).
(§5) (1) Relative viability(%)=(Abssample-Abspos)/(Absneg-Abspos)×100%
(§6) EC50 values were calculated by using GraphPad Prism 7 (GraphPad Software, La Jolla, CA, USA) via fitting of the relative cell viability to the concentration of the test compound by using Equation (2):
(§7) (2) Relative viability(%)= Top-Bottom/1+10^(LogIC50-Log[peptidomimetic]) ×Hill slope
(§8) With top and bottom representing the mean highest and lowest observed values, respectively. The Hill slope represents a factor for the steepness of the linear part of the curve. In order to prevent erroneous calculation, the top and bottom values were constrained to 100 and 0%, respectively. Data were collected from technical triplicates. The selectivity index was calculated as the average effect on cell viability (EC50 values for HepG2 and NIH 3T3 cells) divided by the MIC.

[10] = MTS/PMS cell viability assay; type: cell-based, mouse; conditions: mouse, NIH 3T3 fibroblasts, 1 h exposure, read-out: Cytotoxicity NIH 3T3 EC50 ± SD
Procedure: as §3, §4, §5, §6, §7, §8

[11] = tested on: E. coli ST131; test: MIC by broth microdilution; type: cell-based, Escherichia coli; conditions: peptidomimetic alone
Procedure: as §1

[12] = tested on: NIH 3T3 and HepG2 cells; test: Effect on viability of mammalian cells (both cell lines); type: cell-based, mouse and human
Procedure: as §3, §4, §5, §6, §7
With top and bottom representing the mean highest and lowest observed values, respectively. The Hill slope represents a factor for the steepness of the linear part of the curve. […] The selectivity index was calculated as the average effect on cell viability (EC50 values for HepG2 and NIH 3T3 cells) divided by the MIC.

[13] = tested on: MDR E. coli ST131; test: Screening of peptidomimetic-antibiotic combinations (growth / growth inhibition); type: cell-based, Escherichia coli; set-up: key to Growth in combination with RIF / Growth in combination with AZM: Growth (+); growth inhibition (–)
Procedure: as §1

[14] = MIC of azithromycin combined with the labelled peptidomimetic
[15] = MIC of rifampicin combined with the labelled peptidomimetic
[16] = 0.5 μM peptidomimetic + 0.5 μg/mL rifampicin
[17] = peptidomimetic 0.5 μM + azithromycin 1 μg/mL
[18] = peptidomimetic 0.5 μM + rifampicin 0.5 μg/mL

CCC[C@@H]1C[C@@H](C(=O)N[C@@H]([C@H]2O[C@H](SC)[C@H](O)[C@@H](O)[C@H]2O)[C@H](C)Cl)N(C)C1 [Clindamycin]
MIC of antibiotic in presence of peptidomimetic 26 ([1]; + 0.25 μM peptidomimetic 26): >4 µg/mL | MIC of antibiotic in presence of peptidomimetic 1 ([1]; + 0.5 μM peptidomimetic 1): 4 µg/mL | MIC of antibiotic in presence of peptidomimetic 15 ([1]; + 0.5 μM peptidomimetic 15): >4 µg/mL | MIC ([1]; Escherichia coli, no peptidomimetic, read-out: MIC of antibiotic alone): > 4 µg/mL | Antibiotic MIC alone ([2]; checkerboard): 125 µg/mL | MIC of antibiotic in presence of peptidomimetic 1 ([3]; + 1 μM peptidomimetic 1): >4 µg/mL | MIC of antibiotic in presence of peptidomimetic 15 ([3]; + 1 μM peptidomimetic 15): >4 µg/mL | MIC of antibiotic in presence of peptidomimetic 26 ([3]; + 1 μM peptidomimetic 26): 2 µg/mL | MIC ([3]; Klebsiella pneumoniae, no peptidomimetic, read-out: MIC of antibiotic alone): > 4 µg/mL | MIC of antibiotic alone ([3]; no peptidomimetic): >4 µg/mL

CC(=O)N[C@@H](CCCCN)C(=O)N(CCC(=O)N[C@@H](CCCCN)C(=O)N(CCC(=O)N[C@@H](CCCCN)C(=O)N(CCC(=O)N[C@@H](CCCCN)C(=O)N(CCC(=O)N[C@@H](CCCCN)C(=O)N(CCC(=O)N[C@@H](CCCCN)C(=O)N(CCC(=O)N[C@@H](CCCCN)C(=O)N(CCC(=O)N[C@@H](CCCCN)C(=O)N(CCC(N)=O)Cc1ccccc1)Cc1ccccc1)Cc1ccccc1)Cc1ccccc1)Cc1ccccc1)Cc1ccccc1)Cc1ccccc1)Cc1ccccc1 [Peptidomimetic 15, Ac-(Lys-βNPhe)8-NH2]
Antibiotic MIC in combination (AZM) [4, 14]: 1 µg/mL | Antibiotic MIC in combination (RIF) [4, 15]: 0.5 µg/mL | Peptidomimetic MIC alone ([4]; checkerboard): 1 µM | Peptidomimetic MIC in combination ([4]; combined with AZM): 0.13 µM | Peptidomimetic MIC in combination ([4]; combined with RIF): 0.13 µM | Antibiotic MIC in combination (RIF) ([5]; P. aeruginosa ATCC 27853, MIC of rifampicin combined with the labelled peptidomimetic): 0.5 µg/mL | Peptidomimetic MIC alone ([5]; P. aeruginosa ATCC 27853, checkerboard): 1 µM | Peptidomimetic MIC in combination ([5]; P. aeruginosa ATCC 27853, combined with AZM): 0.5 µM | Peptidomimetic MIC in combination ([5]; P. aeruginosa ATCC 27853, combined with RIF): 0.5 µM | Reduction of the MIC of azithromycin ([5]; P. aeruginosa, sub-MIC concentrations of peptidomimetic): 32- to 512 fold | Antibiotic MIC in combination (AZM) [2, 14]: 8 µg/mL | Antibiotic MIC in combination (RIF) [2, 15]: 0.5 µg/mL | Peptidomimetic MIC alone ([2]; checkerboard): 32 µM | Peptidomimetic MIC in combination ([2]; combined with AZM): 0.5 µM | Peptidomimetic MIC in combination ([2]; combined with RIF): 0.5 µM | Selectivity Index (SI) K. pneumoniae ST258 ([6]; average of EC50 (HepG2, NIH 3T3) divided by MIC): (5) | MIC K. pneumoniae ST258 ([6]; peptidomimetic alone): 32 µM | MIC P. aeruginosa ATCC 27853 [7]: 1 µM | Screening result with rifampicin [8, 16]: inhibit growth | Growth in combination with AZM [8, 17]: + | Growth in combination with RIF [8, 18]: – | EC50 at 1 h [9]: 121.37 ± 0.06 µM | EC50 at 1 h [10]: 217 ± 23.1 µM | MIC E. coli ST131 [11]: 1 µM | EC50 [12]: > 100 µM | Screening result with rifampicin [13, 16]: inhibit growth | Growth in combination with AZM [13, 17]: – | Growth in combination with RIF [13, 18]: –
